Here are results for two molecules from US20150164868A1, “METHODS OF ADMINISTERING RIFAXIMIN WITHOUT PRODUCING ANTIBIOTIC RESISTANCE” (priority 2012, published 2015).

Series [1] relates to Staphylococcus spp. Nature of the series: Rifampicin susceptibility testing (E-test strip) of Staphylococcus colonies isolated from rat stool. The class given is cell-based. Conditions: for MIC: read-out: mean inhibitory concentration (MIC) for rifampicin. As for the experimental part: Rifampicin susceptibility was tested in Staphylococcus spp. isolated from stool of rats before and after rifaximin treatment for 10 days. From PEA plates, 30 random recognizable Staphylococcus colonies were picked for baseline cultures, suspended in PBS and spread on PEA agar plates to create a lawn. A commercially available rifampicin test strip was added to each lawn to detect rifampicin resistance. The range of rifampicin mean inhibitory concentrations (MICs) detected by E-test was 0.002 to 32 μg/mL. Based on manufacturer's instruction, growth at <2 ug/mL was considered sensitive, growth at 2-4 ug/mL was considered intermediate resistance to rifampicin, and growth at >4 ug/mL was considered resistant to rifampicin. After 10 days of rifaximin, stool was again plated on PEA and another 30 staphylococcal colonies were picked for producing a lawn to analyze rifampicin resistance using the applied test strip. Since no significant Staphylococcus spp. colonies remained on day 30 post rifaximin treatment, sensitivity testing could not be assessed.

A further series concerns total bacteria. Nature of the series: qPCR of total luminal bacteria by bowel segment. The format is in vivo, Sprague-Dawley rats. The text has this:
(§1) For the examination of luminal bacterial counts, rats were euthanized and dissected after 10 days of PBS (n=10) (control), after 10 days of rifaximin (n=10) and 30 days post rifaximin (n=10). During the dissection, pre-specified segments of duodenum, jejunum, ileum, cecum and left colon were ligated and resected as previously described (Pimentel et al. 2008. Dig Dis Sci 53:982-989). Luminal contents were extracted from each segment. For culture of coliforms, serial dilutions were again prepared and plated on MacConkey agar then incubated and counted. In addition, luminal contents were also used to determine total bacterial counts by qPCR.
To quantify bacteria in the luminal contents, qPCR was used. DNA was isolated from luminal contents of the duodenal, jejunal, ileal, cecal and left colon samples using commercially available kits. Bacterial universal primers (Mohammadi et al. 2003. J Clin Microbiol 41(10):4796-4798) were used to amplify the 16S rRNA gene from DNA using a commercially available RT-PCR detection system and optical grade 96-well plates. Samples were run in duplicate. To generate standard curves, the Ct values were analyzed from ten-fold dilutions of lysed Escherichia coli cultures. E. coli from a number of laboratory strains were pooled and grown in LB media.
The same adult male Sprague-Dawley rats from the coliform culture study described above were used here. In this experiment, ten rats were euthanized at day 10 of rifaximin treatment, and ten rats were euthanized at day 30 after completion of rifaximin treatment. As a control to these two groups, a group of 10 rats were gavaged with only PBS (placebo); these rats were also euthanized after 10 days. After euthanasia, rats were dissected to remove a segment of ileum, jejunum and duodenum as well as cecum and left colon. Luminal contents from these 5 areas were removed, and DNA was extracted. Quantitative PCR (qPCR) was used to determine the total number of bacteria in each segment of bowel. These counts were compared between control, rifaximin treated and 30 day post rifaximin rats (Example 1).
Background: Real-time PCR tracks product formation cycle by cycle.

In series [2] the test system is Staphylococcus spp. Nature of the series: Stool Staphylococcus spp. colony counts (PEA agar) during and after daily rifaximin gavage. The class given is in vivo, Sprague-Dawley rats. The text has this:
Adult male Sprague-Dawley rats were acquired and quarantined for 5 days. During this time, chow was standardized to ensure all animals had identical feeding type.
(§2) After this equilibration period, fresh stool was collected from each rat (n=30) by anal stimulation. The stool collected on Day 0 was homogenized and plated by serial dilution with 1XPBS (Phosphate Buffered Saline) on Blood Agar with Phenylethyl Alcohol (PEA) to select for the presence of the Staphylococcal spp. Similarly, homogenized stool was serially plated on MacConkey agar to select for and determine coliform counts in the stool. All plates were incubated for 24 hours at 37° C. Based on serial stool dilution and colony counts, the baseline stool levels of Staphylococcus spp. and coliforms were determined
(§3) Rats were divided into 3 treatment groups and gavaged daily for 10 days with or without high dose rifaximin Group 1 was gavaged with PBS alone, Group 2 was gavaged daily with rifaximin 200 mg in PBS. Groups 1 and 2 were euthanized after the 10 days of daily gavage. Group 3 was gavaged daily with rifaximin 200 mg in PBS and housed for 30 days following completion of rifaximin before euthanasia. During the rifaximin treatment, fresh stool was collected daily as described above. Again, stool was homogenized and plated by serial dilution on MacConkey and PEA agar to determine coliform and Staphylococcus spp. counts during the treatment. After the completion of 10 days of treatment, 10 rats were euthanized for bacterial quantitation by culture and qPCR throughout the intestinal tract. The remaining 10 rats were followed for 30 days after completing rifaximin. These rats had interval stool culture for quantitation of Staphylococcus spp. and coliforms and the determination of recovery time of stool flora if any.

The subject of another series is coliform bacteria. Nature of the series: Effect of dietary fat with rifaximin on coliform bacteria. The format is in vivo, Sprague-Dawley rats. Conditions: healthy rats. As for the experimental part:
Adult male Sprague-Dawley Rats were randomly assigned to three groups. Group 1 was gavaged daily for 7 days with rifaximin in PBS. Group 2 received rifaximin 200 mg in lipid daily by gavage. Group 3 were 10 rats only given PBS (control). Rats had fresh stool collected by anal stimulation at baseline and daily during gavage. The stool was homogenized and plated by serial dilution on MacConkey Agar (BD Diagnostics, Franklin Lakes, N.J.). This is a selective agar for coliform bacteria. Based on serial dilution, the total number of coliform bacteria was determined.

Series [3] concerns coliforms. Nature of the series: Stool coliform culture (MacConkey agar) with rifaximin gavage. The format is in vivo, Sprague-Dawley rats. As for the experimental part: as §2
as §3, with “Again, stool was homogenized and plated by serial dilution on MacConkey and PEA agar to determine coliform and Staphylococcus spp. counts during the treatment.” left out, “The remaining 10 rats were followed for 30 days after completing rifaximin.” left out

Another series concerns Staphylococcal spp. In words: IBS model: Staphylococcus sensitivity testing to rifampin (E-test strips). The class given is cell-based. On the procedure: The effect of rifaximin on Staphylococcal species was tested and antibiotic resistance was examined. The contents of the ligated bowel segments were examined to determine the quantity and type of bacteria by segment and evaluate expression of mucosal cytokines.
Among rats with detectable staphylococcus, rifampin resistance was tested using E-test strips and Data was analyzed by Fisher's Exact Test. […] (Table 2)

Series [4] concerns coliforms. Nature of the series: Luminal coliform culture by bowel segment. The format is in vivo, Sprague-Dawley rats. Conditions: after treatment with rifaximin vs non-treated control rats; bowel segments (FIG. 3).
From the text: as §1

For series [5] the following is noted: oral administration; Descombe et al. 1994; cited from earlier work.
Series [6] has as its system Staphylococcus, Streptococcus, Enterococcus, and Enterobacteriaceae. Conditions: species of Staphylococcus; cited from earlier work.
The next series has as its system Staphylococcus. Nature of the series: IBS model (post C. jejuni): presence of Staphylococcus after rifaximin. The format is in vivo, Sprague-Dawley rats. Particulars: rats with IBS phenotype; 51 rats rifaximin vs 50 placebo. As for the experimental part: Following acute infection with C. jejuni, rats develop a phenotype of IBS and small intestinal bacterial overgrowth. For the examination of antibiotic resistance following rifaximin treatment in subject with IBS, 100 Sprague-Dawley rats were gavaged with 10^8 cfu of C. jejuni 81-176 within 30 minutes of gavage with a bicarbonate solution using a ball-tipped gavage needle. After gavage rats were followed with daily stool culture for C. jejuni for seven consecutive days to verify infection. In addition, stool was characterized on the basis of consistency.
Thirty days from gavage, stool samples were collected on two consecutive days to confirm absence of C. jejuni in stool. Once rats were confirmed to have cleared C. jejuni, they were housed in common conditions for a period of three months. […]
The rats were then randomized and received either a 200 mg dose of rifaximin in PBS or PBS alone daily for 10 days. […] Upon completion of treatment with rifaximin, the rats were monitored for an additional seven days. […]
The effect of rifaximin on Staphylococcal species was tested and antibiotic resistance was examined. The contents of the ligated bowel segments were examined to determine the quantity and type of bacteria by segment and evaluate expression of mucosal cytokines. […]

The mark [7] stands for this setting: after 10 days of gavage with rifaximin, 30 random colonies.
[8] abbreviates: all rats receiving rifaximin (n=20) vs control rats.
The mark [9] stands for this setting: Staphylococcus from IBS-phenotype rats treated with rifaximin.
Setting [10] is: sensitivity to rifampin, IBS-phenotype rats treated with rifaximin.

Converted amounts (≈) assume the structure as drawn. Read-outs that look alike come from different tables or passages of the source.

For `CO[C@H]1/C=C/O[C@@]2(C)Oc3c(C)c(O)c4c(O)c(c(/C=N/N5CCN(C)CC5)c(O)c4c3C2=O)NC(=O)/C(C)=C\C=C\[C@H](C)[C@H](O)[C@@H](C)[C@@H](O)[C@@H](C)[C@H](OC(C)=O)[C@@H]1C` [rifampicin], the MIC in the series with Staphylococcus spp. [1] (240 h, Staphylococcus colonies from rat stool after 10 days of high dose rifaximin, P=0.63 vs baseline) was found to be 0.91 ± 0.52 µg/mL (≈ 1.11 µM); in the series on Staphylococcus spp. [1] (Staphylococcus colonies from rat stool at baseline (before rifaximin)), 1.1 ± 1.6 µg/mL (≈ 1.34 µM).

For “(2S,16Z,18E,20S,21S,22R,23R,24R,25S,26S,27S,28E)-5,6,21,23,25 Pentahydroxy-27-methoxy-2,4,11,16,20,22,24,26-octamethyl-2,7-(epoxypentadeca-(1,11,13)trienimino)benzofuro(4,5-e)pyrido(1,2,-a)benzimidazole-1,15(2H)-dione,25-acetate) [rifaximin]”, in the series on Staphylococcus spp. [1] (setting [7]), the “Staphylococcal colonies Intermediate (2-4 ug/mL) resistance to rifampin, %” value was determined as 3.3% and the “Staphylococcal colonies Sensitive (<2 ug/mL) to rifampin, %” value came to 96.6%. Further, in the series on total bacteria (after 10 days of rifaximin and 30 days post, P=0.08, not quite significant), the “durability of the reduction in duodenal bacteria counts by qPCR” value is recorded as “sustained 30 days after the completion of rifaximin”. For the same molecule, in the series with total bacteria (setting [8]), the “duodenal total bacterial counts by qPCR” value is recorded as “significant reduction in duodenal bacterial counts”; the “jejunal total bacterial counts by qPCR” value is reported as “appeared to diminish as well, this did not reach statistical significance”; the “total bacterial counts by qPCR in the ileum, cecum or left colon” value is reported as “no differences were seen”. Also, the “Staphylococcus spp. colonies in stool 30 days after rifaximin” value in the series with Staphylococcus spp. [2] (30 days after completion of 10 days rifaximin) is listed as “insufficient Staphylococcus spp. colonies in any of the rats to analyze”. The “range of total count of Staphylococcus spp in stool” value in the series on Staphylococcus spp. [2] (after 10 days of rifaximin 200 mg daily gavage, 20 rats) was 0-8.6×10^5 cfu/ml. In the series on Staphylococcus spp. [2] (after 10 days of rifaximin 200 mg daily gavage, total of S. aureus and coag-Staphylococcus, 20 rats, p<0.01 vs baseline), the “median total count of Staphylococcus spp in stool” value is 1.20×10^5 cfu/ml. Also, in the series on Staphylococcus spp. [2] (day 10 of rifaximin treatment), the “level of S. aureus in stool of rats with detectable S. aureus” value was 2×10^3 cfu/ml. The “number of rats with detectable S. aureus in stool” value in the series on Staphylococcus spp. [2] (day 10 of rifaximin treatment, of 20 rats (18/20 at baseline)) was determined as 5. In the series on Staphylococcus spp. [2] (during rifaximin 200 mg daily gavage), the “time course of Staphylococcus spp in stool” value was “diminish significantly in stool by day 3”. Also, the “normal flora (coliform) counts in the small bowel” value in the series with coliform bacteria (rifaximin by itself or with oil as dissolving media) is “did not appear to change normal flora counts”. Besides, the “median coliform count in the duodenum” value in the series on coliform bacteria (rifaximin in PBS or rifaximin 200 mg in lipid, daily gavage 7 days) came to 0. The “time to recovery of stool coliform count” value in the series with coliforms [3] (after the 10-day rifaximin treatment) is given as “three”. Besides, the “median stool coliform count” value in the series on coliforms [3] (day 10 of high dose rifaximin, P<0.01 vs baseline) is reported as 2.2×10^3 cfu/mL. Moreover, in the series on Staphylococcal spp (setting [9]), the “Median MIC of rifampin” value was determined as 0.214 µg/mL and the “Range of rifampin MIC” value was in the range of 0.012 to 16 µg/mL. For the same molecule, the “rifampin resistance of Staphylococcus after treatment” value in the series with Staphylococcal spp (rats with an IBS phenotype, detectable staphylococcus, Fisher's Exact Test) is on record as “no evidence of rifampin resistance”. In addition, the “% of rats with resistance” value in the series with Staphylococcal spp (resistance to rifampin, 51 IBS-phenotype rats treated with rifaximin) worked out at 1.96%. Also, in the series with Staphylococcal spp (setting [10]), the “# of intermed Staphylococcal spp” value worked out at 0, the “# of resistant Staphylococcal spp” value was 1 and the “# of sensitive Staphylococcal spp” value was 10. For the same molecule, the “change in luminal coliform counts by culture” value in the series with coliforms [4] is listed as “no significant change in coliform counts by culture”. Further, the systemic absorption entry in series [5] was “negligible systemic absorption”. Besides, the “antibacterial activity in vitro” value in series [6] is given as “active”. The “rate of colonization of rats with Staphylococcus” value in the series on Staphylococcus is on record as “reduction in the rate of colonization”.
